One may read the inhibition as how much of the control response was suppressed.

The subject of one assay is Botrytis cinerea. Description: Fungal growth inhibition, treated disc on agar (BOT CIN). In kind it is cell-based. To be noted: Botrytis cinerea, disc dipped in 500 mg/l, 29° C., read-out: Percent Growth Inhibition, BOT CIN.
The subject of another assay is Erysiphe polygoni. Put plainly: Powdery mildew on pinto bean, foliar application (ERY POL). In kind it is in vivo. Conditions: Erysiphe polygoni, similar procedure as barley (1,000 mg/l), read-out: Percent Reduction of Disease, ERY POL. The gist of the method:
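Pinto bean plants sprayed with compound emulsion (acetone or inert solvent, TWEEN 20, water) at 1,000 mg/l, or left unsprayed, dried, then inoculated with Erysiphe polygoni spores in a 21° C greenhouse. Disease scored; percent control computed against untreated controls.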

Another assay concerns Pythium ultimum. Description: Fungal growth inhibition, treated disc on agar (PYT ULT). In kind it is cell-based. Conditions: Globisporangium ultimum, disc dipped in 500 mg/l, 29° C., read-out: Percent Growth Inhibition, PYT ULT.
The test system of the next assay is Erysiphe cichoracearum. Description: Powdery mildew of cucumber, systemic root uptake (CMS). In kind it is in vivo. Conditions: 45 ml of 250 mg/l, 8 days after inoculation. The gist of the method: (§1)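 Pot soil of barley (BMS) and cucumber (CMS) plants was drenched with 45 ml of a 250 mg/l acetone/Tween 20 aqueous emulsion, with untreated plants as controls. Disease was scored on a rating scale that included intermediate grades.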

The next assay concerns Colletotrichum gossypii. Put plainly: Fungal growth inhibition, treated disc on agar (COL GOS). To be noted: Colletotrichum gossypii, disc dipped in 500 mg/l, 29° C., read-out: Percent Growth Inhibition, COL GOS. In kind it is cell-based.
The test system of another assay is Fusarium oxysporum. Put plainly: Fungal growth inhibition, treated disc on agar (FUS OXY). In kind it is cell-based. Conditions: Fusarium oxysporum, disc dipped in 500 mg/l, 29° C., read-out: Percent Growth Inhibition, FUS OXY.
Another assay relates to Scierotinia minor. Description: Fungal growth inhibition, treated disc on agar (SCL MIN). To be noted: disc dipped in 500 mg/l, 29° C., read-out: Percent Growth Inhibition, SCL MIN. In kind it is cell-based.
The test system of another assay is Pyricularia oryzae. Put plainly: whole plant or invertebrate. In kind it is in vivo. To be noted: Pyricularia oryzae, in Hordeum vulgare, foliar, 216 h, read-out: Percent Reduction of Disease, PYR ORY, barley, foliar, 1,000 mg/l.
Another assay deals with Septoria nodorum. Put plainly: Fungal growth inhibition, treated disc on agar (SEP NOD). In kind it is cell-based. Conditions: Parastagonospora nodorum, disc dipped in 500 mg/l, 29° C., read-out: Percent Growth Inhibition, SEP NOD.
In a further assay the test system is Uromyces phaseoli. Put plainly: Bean rust fungus eradicant test (URO PHA). Conditions: Uromyces phaseoli, 216 h, pinto bean, eradicant spray 2 days after inoculation, 1,000 mg/l; read-out: Percent Reduction of Disease, URO PHA. Format: in vivo. The method in brief:
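Seven-day-old pinto bean plants (Phaseolus vulgaris, primary leaf) were inoculated with 20,000 spores/ml, held 24 h at 99% humidity and 21° C., then sprayed two days post-inoculation with acetone/TWEEN 20 emulsions at 1,000 mg/l. After nine days in a 21° C. greenhouse, disease was scored as percent reduction versus unsprayed controls.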

A further assay concerns Erysiphe graminis. Description: Powdery mildew of barley, systemic root uptake (BMS). In kind it is in vivo. To be noted: 45 ml of 250 mg/l, 8 days after inoculation. The gist of the method:
as §1

From the text for Colletotrichum gossypii: (§2) Filter paper discs, each 11 mm. in diameter, were dipped in each of the test solutions. The discs were allowed to air dry to drive off the acetone solvent. A number of untreated discs were used as controls.
(§3) The treated and untreated discs were then placed on agar plates and one of the following fungus species: Septoria nodorum (SEP NOD), Botrytis cinerea (BOT CIN), Fusarium oxysporum (FUS OXY), Pythium ultimum (PYT ULT), Rhizoctonia solani (RHI SOL), Colletotrichum gossypii (COL GOS), and Scierotinia minor (SCL MIN), was added to the center of each disc in the form of a culture plug with the fungus mat in contact with the paper of the test disc. Cercosporidium personatum (CER PER), was added to discs as a spore suspension (20,000 spores/ml) to the disc (two drops of spore suspension per disc), rather than a mycelial culture plug. The plates were then incubated at 29° C. in an oven.
(§4) With the exception of the discs containing Cercosporidium personatum, the discs were evaluated by first measuring the radius from the center of the fungus colony on the treated discs and on the untreated discs. Percent growth inhibition of each of the compounds tested was determined as a function of the difference between the radius of the fungus colony on the treated disc versus the radius of the fungus colony on the untreated disc.
From the text for Scierotinia minor: as §2, §3, §4

For the compound `CCCCC(C#N)(CCc1ccccc1F)c1cccnc1` (centres unmarked) [Compound 74], the inhibition at 500 µg/mL with Botrytis cinerea is 100%; in the assay on Pythium ultimum, 36%; with Colletotrichum gossypii, 100%; in the assay on Fusarium oxysporum it was 3%; with Scierotinia minor, 100%; in the assay with Septoria nodorum, 100%. Further, the values for the pest or weed control at 1000 µg/mL in the assay on Erysiphe polygoni, with Pyricularia oryzae and in the assay with Uromyces phaseoli were 100%, 0% and 92%, respectively. Further, the “Percent Reduction of Disease, CMS” value in the assay on Erysiphe cichoracearum was 80%. Besides, in the assay on Erysiphe graminis, the “Percent Reduction of Disease, BMS” value was 100%.

Turning to `CCCC(C#N)(CCc1ccccc1F)c1cccnc1` (centres unmarked) [Compound 75], the inhibition at 500 µg/mL with Botrytis cinerea amounted to 100%; with Pythium ultimum, 1%; in the assay with Colletotrichum gossypii, 100%; with Fusarium oxysporum, 100%; in the assay on Scierotinia minor, 92%; with Septoria nodorum it was 100%. Besides, the results for the pest or weed control at 1000 µg/mL in the assay with Erysiphe polygoni, with Pyricularia oryzae and with Uromyces phaseoli were 100%, 0% and 83%, respectively. The “Percent Reduction of Disease, CMS” value in the assay on Erysiphe cichoracearum amounted to 0%. Further, the “Percent Reduction of Disease, BMS” value in the assay on Erysiphe graminis stood at 100%.

Turning to `CCCCC(C#N)(CCCc1ccc(OC)cc1)c1cccnc1` (centres unmarked) [Compound 76], the inhibition at 500 µg/mL with Botrytis cinerea was 100%; with Pythium ultimum, 0%; with Colletotrichum gossypii, 100%; with Fusarium oxysporum, 50%; in the assay on Scierotinia minor, 100%; with Septoria nodorum it was 100%. Moreover, the pest or weed control at 1000 µg/mL amounted to 100% in the assay on Erysiphe polygoni, 0% in the assay on Pyricularia oryzae and 67% with Uromyces phaseoli. Further, the “Percent Reduction of Disease, CMS” value in the assay on Erysiphe cichoracearum is given as 0%. In the assay with Erysiphe graminis, the “Percent Reduction of Disease, BMS” value is reported as 0%.

For the compound `N#CC(CCc1ccc(F)cc1)(CCC(F)(F)F)c1cccnc1` (centres unmarked) [Compound 77], the inhibition at 500 µg/mL was 65% in the assay with Botrytis cinerea; 30% in the assay on Pythium ultimum; 15% in the assay with Colletotrichum gossypii; 55% in the assay on Fusarium oxysporum; 40% in the assay with Scierotinia minor; 20% in the assay with Septoria nodorum. For the same compound, the pest or weed control at 1000 µg/mL with Erysiphe polygoni stood at 100%; in the assay with Pyricularia oryzae, 35%; in the assay on Uromyces phaseoli it was 90%. The “Percent Reduction of Disease, CMS” value in the assay on Erysiphe cichoracearum was 100%. In addition, in the assay on Erysiphe graminis, the “Percent Reduction of Disease, BMS” value is listed as 100%.

In the case of `N#CC(CCCC(F)(F)F)(CCc1ccc(F)cc1)c1cccnc1` (centres unmarked) [Compound 78], the inhibition at 500 µg/mL in the assay on Botrytis cinerea is 34%; with Pythium ultimum, 0%; in the assay with Colletotrichum gossypii, 50%; in the assay on Fusarium oxysporum, 40%; in the assay with Scierotinia minor, 20%; with Septoria nodorum it was 30%. Besides, the pest or weed control at 1000 µg/mL with Erysiphe polygoni was found to be 92%; in the assay on Pyricularia oryzae, 100%; in the assay with Uromyces phaseoli, 83%. The “Percent Reduction of Disease, CMS” value in the assay on Erysiphe cichoracearum was determined as 92%. The “Percent Reduction of Disease, BMS” value in the assay with Erysiphe graminis stood at 100%.

On to `Cc1ccc(CCC(C#N)(CCCC(F)(F)F)c2cccnc2)cc1` (centres unmarked) [Compound 79], for which the inhibition at 500 µg/mL in the assay on Botrytis cinerea was 0%; with Pythium ultimum it was 0%; in the assay on Colletotrichum gossypii it was 30%; in the assay on Fusarium oxysporum it was 46%; with Scierotinia minor it was 5%; in the assay with Septoria nodorum, 30%. For the same compound, the results for the pest or weed control at 1000 µg/mL in the assay with Erysiphe polygoni, in the assay on Pyricularia oryzae and in the assay with Uromyces phaseoli were 100%, 11% and 0%, respectively. Further, the “Percent Reduction of Disease, CMS” value in the assay on Erysiphe cichoracearum is 92%. For the same compound, the “Percent Reduction of Disease, BMS” value in the assay with Erysiphe graminis is reported as 92%.

`Cc1ccc(CCC(C#N)(CCC(F)(F)F)c2cccnc2)cc1` (centres unmarked) [Compound 80]: the inhibition at 500 µg/mL in the assay on Botrytis cinerea came out at 9%; with Pythium ultimum it was 7%; in the assay with Colletotrichum gossypii it was 59%; in the assay with Fusarium oxysporum it was 24%; in the assay on Scierotinia minor, 5%; with Septoria nodorum it was 0%. The pest or weed control at 1000 µg/mL was found to be 100% in the assay with Erysiphe polygoni, 78% in the assay with Pyricularia oryzae and 83% in the assay with Uromyces phaseoli. Besides, the “Percent Reduction of Disease, CMS” value with Erysiphe cichoracearum was 92%. Also, in the assay on Erysiphe graminis, the “Percent Reduction of Disease, BMS” value stood at 100%.
